Experimental data as given in BindingDB's records for doi:10.1016/j.ejmech.2010.09.016 (Democritus University of Thrace, 2010).

target: Seed linoleate 13S-lipoxygenase-1 (Glycine max) (UniProt P08170); assay: Inhibition of soybean lipoxygenase at by UV spectrophotometry
Sequence (P08170 whole entry, looked up): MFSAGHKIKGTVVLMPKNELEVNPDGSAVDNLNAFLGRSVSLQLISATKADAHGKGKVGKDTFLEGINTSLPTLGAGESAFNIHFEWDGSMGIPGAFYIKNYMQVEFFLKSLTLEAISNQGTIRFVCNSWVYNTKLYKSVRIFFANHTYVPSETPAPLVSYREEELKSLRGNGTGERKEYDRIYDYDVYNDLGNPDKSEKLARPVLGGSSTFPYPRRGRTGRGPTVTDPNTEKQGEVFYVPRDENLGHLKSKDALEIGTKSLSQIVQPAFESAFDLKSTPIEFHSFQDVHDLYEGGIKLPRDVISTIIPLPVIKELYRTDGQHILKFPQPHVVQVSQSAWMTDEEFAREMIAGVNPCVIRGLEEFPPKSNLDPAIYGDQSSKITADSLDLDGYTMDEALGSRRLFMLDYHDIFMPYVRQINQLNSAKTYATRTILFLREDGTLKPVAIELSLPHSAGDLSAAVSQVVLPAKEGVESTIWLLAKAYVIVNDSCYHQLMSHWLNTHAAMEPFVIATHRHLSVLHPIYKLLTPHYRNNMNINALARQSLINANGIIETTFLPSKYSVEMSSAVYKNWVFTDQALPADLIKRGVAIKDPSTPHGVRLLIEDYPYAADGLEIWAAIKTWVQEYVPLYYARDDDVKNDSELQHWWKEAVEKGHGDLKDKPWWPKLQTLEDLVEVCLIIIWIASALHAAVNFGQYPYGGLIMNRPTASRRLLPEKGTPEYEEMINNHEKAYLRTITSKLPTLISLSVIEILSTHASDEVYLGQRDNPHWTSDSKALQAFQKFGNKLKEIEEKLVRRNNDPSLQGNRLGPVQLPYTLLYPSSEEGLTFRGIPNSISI

IC50 [µM]	Structure (SMILES)
25	Clc1ccc(Cc2noc(NC3CCCCC3)n2)cc1 [3-(4-Chlorobenzyl)-N-cyclohexyl-1,2,4-oxadiazol-5-amine]
100	CC(C)Nc1nc(Cc2ccc(Cl)cc2)no1 [3-(4-Chlorobenzyl)-N-isopropyl-1,2,4-oxadiazol-5-amine]
100	CC(C)Nc1nc(C2CCCCC2)no1 [3-Cyclohexyl-N-isopropyl-1,2,4-oxadiazol-5-amine]
25	Cc1ccc(-c2noc(NCCCN(C)C)n2)cc1 [N1,N1-Dimethyl-N3-(3-p-tolyl-1,2,4-oxadiazol-5-yl)propane-1,3-diamine]
55	COc1ccc(C(=N)NO)cc1 [N'-hydroxy-4-methoxybenzimidamide]
100	Cc1ccc(C(=N)NO)cc1 [N'-hydroxy-4-methylbenzimidamide]
100	O=[N+]([O-])c1ccc(Cc2noc(NC3CCCCC3)n2)cc1 [N-Cyclohexyl-3-(4-nitrobenzyl)-1,2,4-oxadiazol-5-amine]
92	Cc1ccc(-c2noc(NC3CCCCC3)n2)cc1 [N-Cyclohexyl-3-p-tolyl-1,2,4-oxadiazol-5-amine]
50	CC(=O)N(c1nc(-c2ccc([N+](=O)[O-])cc2)no1)C1CCCCC1 [N-Cyclohexyl-N-[3-(4-nitrophenyl)-1,2,4-oxadiazol-5-yl]acetamide]
58.5	CC(=O)N(c1nc(-c2cccc([N+](=O)[O-])c2)no1)C(C)C [N-Isopropyl-N-[3-(3-nitrophenyl)-1,2,4-oxadiazol-5-yl]acetamide]
100	CC(=O)N(c1nc(Cc2ccc(Cl)cc2)no1)C1CCCCC1 [N-[3-(4-Chlorobenzyl)-1,2,4-oxadiazol-5-yl]-N-cyclohexylacetamide]
